According to patent US8618154B2, “LXR modulators” (Bristol-Myers Squibb Company, priority 2009, dated 2013):

Experiment: High throughput metabolic stability in human microsomes
Assay type: in vitro ADME
Settings: parent compound remaining at 10 minutes, human liver microsomes
Description: The metabolic stability assay evaluates CYP-mediated metabolic stability in vitro using Human liver microsomes after a ten-minute incubation.
Test compound is received as a 3.5 mM stock solution in 100 percent DMSO. Compound is diluted to create a 50 μM acetonitrile (ACN) solution containing 1.4% DMSO, which is then used as a 100× stock for incubation with human liver microsomes. Each compound is tested in duplicate. Compound, NADPH and liver microsome solutions are combined for incubation in three steps: • 1) 152 μl of liver microsome suspension, protein concentration of 1.1 mg/ml in 100 mM NaPi, pH 7.4, 5 mM MgCl2 buffer, is pre-warmed at 37° C. • 2) 1.7 μl of 50 μM compound (98.6% ACN, 1.4% DMSO) is added to the same tube and pre-incubated at 37° C. for 5 minutes. • 3) The reaction is initiated by the addition of 17 μl of pre-warmed 10 mM NADPH solution in 100 mM NaPi, pH 7.4.
Reaction components are mixed well, and 75 μl are immediately transferred into 150 μl quench/stop solution (zero-time point, T0). Reactions are incubated at 37° C. for 10 minutes and then an additional 75 μl aliquot is transferred into 150 μl quench solution. Acetonitrile containing 100 μM DMN (a UV standard for injection quality control), is used as the quench solution to terminate metabolic reactions.
Quenched mixtures are centrifuged at 1500 rpm (˜500× g) in an Allegra X-12 centrifuge, SX4750 rotor (Beckman Coulter Inc., Fullerton, Calif.) for fifteen minutes to pellet denatured microsomes. A volume of 90 μl of supernatant extract, containing the mixture of parent compound and its metabolites, is then transferred to a separate 96-well plate for UV-LC/MS-MS analysis to determine the per cent of parent compound that is remaining in the mixture.
The mass spectrometric conditions obtained from automated infusion are used to analyze incubation samples from the Metabolic Stability assay. The injection volume is 5 μl and the flow rate is 0.8 ml/min. The gradient used is show in the table below. All samples are injected with the gradient using mobile phase A and B first. If necessary (for instance, for chromatographic reasons), samples are re-injected with the same gradient, but using mobile phase C and D. All LC-MS/MS analysis parameters are captured electronically in the raw data files.
Peak integration is performed with the Xcalibur™ software. The percent remaining calculation is performed by comparing the LC-MS/MS peak areas from the T10minute samples to those from the T0minute samples for each compound.

Structure (SMILES)	Human Microsome % Remaining
CC(C)(O)c1cn(-c2ccc(-c3cccc(S(C)(=O)=O)c3)cc2)c(C(C)(C)c2ccccc2Cl)n1 [Compound No. 19, Table 1, WO 2007/002563, reference compound]	>80%
CC(C)(O)c1cn(-c2ccc(-c3cc(F)c(CO)c(S(C)(=O)=O)c3)cc2)c(C(C)(C)c2ccccc2F)n1 [Example 1, 2-(1-(3′-fluoro-4′-(hydroxymethyl)-5′-(methylsulfonyl)biphenyl-4-yl)-2-(2-(2-fluorophenyl)propan-2-yl)-1H-imidazol-4-yl)propan-2-ol]	>80%
Cc1cc(-c2cc(F)c(CO)c(S(C)(=O)=O)c2)ccc1-n1cc(C(C)(C)O)nc1C(C)(C)c1c(F)cccc1Cl [Example 2, 2-(2-(2-(2-chloro-6-fluorophenyl)propan-2-yl)-1-(3′-fluoro-4′-(hydroxymethyl)-3-methyl-5′-(methylsulfonyl)biphenyl-4-yl)-1H-imidazol-4-yl)propan-2-ol]	>80%
CC(C)(O)c1cn(-c2ccc(-c3cc(F)c(CO)c(S(C)(=O)=O)c3)cc2Cl)c(C(C)(C)c2c(Cl)cccc2Cl)n1 [Example 3, 2-(1-(3-chloro-3′-fluoro-4′-(hydroxymethyl)-5′-(methylsulfonyl)biphenyl-4-yl)-2-(2-(2,6-dichlorophenyl)propan-2-yl)-1H-imidazol-4-yl)propan-2-ol]	>80%
CC(C)(O)c1cn(-c2ccc(-c3cc(F)c(CO)c(S(C)(=O)=O)c3)cc2)c(C(C)(C)c2cccc(F)c2Cl)n1 [Example 4, 2-(2-(2-(2-chloro-3-fluorophenyl)propan-2-yl)-1-(3′-fluoro-4′-(hydroxymethyl)-5′-(methylsulfonyl)biphenyl-4-yl)-1H-imidazol-4-yl)propan-2-ol]	>80%
CC(C)(O)c1cn(-c2ccc(-c3cc(F)c(CO)c(S(C)(=O)=O)c3)cc2)c(C(C)(C)c2c(Cl)cccc2Cl)n1 [Example 5, 2-(2-(2-(2,6-dichlorophenyl)propan-2-yl)-1-(3′-fluoro-4′-(hydroxymethyl)-5′-(methylsulfonyl)biphenyl-4-yl)-1H-imidazol-4-yl)propan-2-ol]	>80%
CC(C)(O)c1cn(-c2ccc(-c3cc(F)c(CO)c(S(C)(=O)=O)c3)cc2F)c(C(C)(C)c2ccccc2Cl)n1 [Example 6, 2-(2-(2-(2-Chloro-phenyl)propan-2-yl)-1-(3,3′-difluoro-4′-hydroxymethyl-5′-(methylsulfonyl)biphenyl-4-yl)-1H-imidazol-4-yl)-propan-2-ol]	>80%
CC(C)(O)c1cn(-c2ccc(-c3cc(F)c(CO)c(S(C)(=O)=O)c3)cc2F)c(C(C)(C)c2c(F)cccc2Cl)n1 [Example 7, 2-(2-(2-(2-chloro-6-fluorophenyl)propan-2-yl)-1-(3,3′-difluoro-4′-(hydroxymethyl)-5′-(methylsulfonyl)biphenyl-4-yl)-1H-imidazol-4-yl)propan-2-ol]	>80%
CC(C)(O)c1cn(-c2ccc(-c3cc(F)c(CO)c(S(C)(=O)=O)c3)cc2F)c(C(C)(C)c2ccccc2F)n1 [Example 8, 2-{1-(3,3′-Difluoro-4′-hydroxymethyl-5′-methanesulfonyl-biphenyl-4-yl)-2-[2-(2-fluorophenyl)propan-2-yl]-1H-imidazol-4-yl}-propan-2-ol]	>80%
CC(C)(O)c1cn(-c2ccc(-c3cc(F)c(CO)c(S(C)(=O)=O)c3)cc2F)c(C(C)(C)c2c(Cl)cccc2Cl)n1 [Example 9, 2-(2-(2-(2,6-dichlorophenyl)propan-2-yl)-1-(3,3′-difluoro-4′-(hydroxymethyl)-5′-(methylsulfonyl)biphenyl-4-yl)-1H-imidazol-4-yl)propan-2-ol]	>80%
CC(C)(O)c1cn(-c2ccc(-c3cc(F)c(CO)c(S(C)(=O)=O)c3)cc2F)c(Cc2ccc(Cl)cc2Cl)n1 [Example 11, 2-(2-(2,4-dichlorobenzyl)-1-(3,3′-difluoro-4′-(hydroxymethyl)-5′-(methylsulfonyl)biphenyl-4-yl)-1H-imidazol-4-yl)propan-2-ol]	>80%
CC(C)(O)c1cn(-c2ccc(-c3cc(F)c(CO)c(S(C)(=O)=O)c3)cc2F)c(Cc2ccccc2C(F)(F)F)n1 [Example 12, 2-(1-(3,3′-difluoro-4′-(hydroxymethyl)-5′-(methylsulfonyl)biphenyl-4-yl)-2-(2-(trifluoromethyl)benzyl)-1H-imidazol-4-yl)propan-2-ol]	>80%
CC(C)(O)c1cn(-c2ccc(-c3cc(F)c(CO)c(S(C)(=O)=O)c3)cc2Cl)c(Cc2ccc(F)cc2Cl)n1 [Example 13, 2-(1-(3-chloro-3′-fluoro-4′-(hydroxymethyl)-5′-(methylsulfonyl)biphenyl-4-yl)-2-(2-chloro-4-fluorobenzyl)-1H-imidazol-4-yl)propan-2-ol]	>80%
CC(C)(O)c1cn(-c2ccc(-c3cc(F)c(CO)c(S(C)(=O)=O)c3)cc2F)c(Cc2ccc(F)cc2Cl)n1 [Example 14, 2-(2-(2-chloro-4-fluorobenzyl)-1-(3,3′-difluoro-4′-(hydroxymethyl)-5′-(methylsulfonyl)biphenyl-4-yl)-1H-imidazol-4-yl)propan-2-ol]	>80%
CC(C)(O)c1cn(-c2ccc(-c3cc(F)c(CO)c(S(C)(=O)=O)c3)cc2)c(Cc2ccc(Cl)cc2Cl)n1 [Example 15, 2-(2-(2,4-dichlorobenzyl)-1-(3′-fluoro-4′-(hydroxymethyl)-5′-(methylsulfonyl)biphenyl-4-yl)-1H-imidazol-4-yl)propan-2-ol]	>80%
CC(C)(O)c1cn(-c2ccc(-c3cc(F)c(CO)c(S(C)(=O)=O)c3)cc2F)c(Cc2ccccc2F)n1 [Example 16, 2-(1-(3,3′-difluoro-4′-(hydroxymethyl)-5′-(methylsulfonyl)biphenyl-4-yl)-2-(2-fluorobenzyl)-1H-imidazol-4-yl)propan-2-ol]	>80%
Cc1ccccc1Cc1nc(C(C)(C)O)cn1-c1ccc(-c2cc(F)c(CO)c(S(C)(=O)=O)c2)cc1 [Example 17, 2-(1-(3′-fluoro-4′-(hydroxymethyl)-5′-(methylsulfonyl)biphenyl-4-yl)-2-(2-methylbenzyl)-1H-imidazol-4-yl)propan-2-ol]	>80%
CC(C)(O)c1cn(-c2ccc(-c3cc(F)c(CO)c(S(C)(=O)=O)c3)cc2)c(Cc2c(Cl)cccc2Cl)n1 [Example 18, 2-(2-(2,6-dichlorobenzyl)-1-(3′-fluoro-4′-(hydroxymethyl)-5′-(methylsulfonyl)biphenyl-4-yl)-1H-imidazol-4-yl)propan-2-ol]	>80%
CC(C)(O)c1cn(-c2ccc(-c3cc(F)c(CO)c(S(C)(=O)=O)c3)cc2)c(Cc2cc(F)ccc2Cl)n1 [Example 19, 2-[2-(2-Chloro-5-fluoro-benzyl)-1-(3′-fluoro-4′-hydroxymethyl-5′-methanesulfonyl-biphenyl-4-yl)-1H-imidazol-4-yl]-propan-2-ol]	>80%
CC(C)(O)c1cn(-c2ccc(-c3cc(F)c(CO)c(S(C)(=O)=O)c3)cc2F)c(Cc2ccccc2Cl)n1 [Example 20, 2-[2-(2-Chloro-benzyl)-1-(3,3′-difluoro-4′-hydroxymethyl-5′-methanesulfonyl-biphenyl-4-yl)-1H-imidazol-4-yl]-propan-2-ol]	>80%
CC(c1c(Cl)cccc1Cl)c1nc(C(C)(C)O)cn1-c1ccc(-c2cc(F)c(CO)c(S(C)(=O)=O)c2)cc1F (stereo not drawn) [Example 21, 2-{2-[1-(2,6-dichlorophenyl)ethyl]-1-[3,3′-difluoro-4′-(hydroxymethyl)-5′-(methylsulfonyl)biphenyl-4-yl]-1H-imidazol-4-yl}propan-2-ol]	>80%
